{"source": "patent US12084411B2", "about": "“Hinokitiol analogues, methods of preparing and pharmaceutical compositions thereof” (The Board of Trustees of the University of Illinois, priority 2018, dated 2024)", "key": {"J774 macrophages": {"test_system": "J774 macrophages", "test": "Temporal imaging of cytosolic iron levels in J774 macrophages", "type": "cell-based, mouse", "details": "for calcein green fluorescence after reversal of the gradient: external FeCl3 100 μM at t=12 min; for calcein green fluorescence after small molecule addition: iron-loaded cells, 100 μM small molecule at t=5 min", "procedure": "To assess for the capacity for hinokitiol to reversibly and autonomously transport iron across the plasma membrane through the creation of artificial iron gradients, J774 macrophages were grown in Ibidi dishes (Ibidi NC0723624) to ˜80% confluency before incubation with J774 Complete media containing 5 mM ascorbic acid and 200 μM FeSO4. The cells were incubated for 1.5 hours, media was aspirated, and the cells were rinsed with PBS. The cells were then incubated with calcein green-AM (1 μM) in DMEM for 20 minutes at 37° C. The media was aspirated and cells were rinsed (×2) with PBS before DMEM (pH=7.4 in 10 mM HEPES) and 1 mM probenecid (Sigma P8761) was added. Calcein green fluorescence was then imaged on a LSM880 microscope at 37° C. with 5% CO2 at the indicated time points for 30 minutes. Hinokitiol (100 μM final concentration), C2deOHino (100 μM final concentration), or DMSO (all from 1000X stocks in 50 μL DMEM) were added at 5 minutes, and a solution of FeCl3 (100 μM final concentration, in 50 μL DMEM) was added at 12 minutes. Fluorescence in each image at each time point was analyzed by ImageJ analysis then normalized to the fluorescence at t=0 for each image using >100 cells per experiment."}, "fet3Δftr1Δ yeast": {"test_system": "fet3Δftr1Δ yeast", "test": "Growth rescue of fet3Δftr1Δ yeast with small molecules in liquid media", "type": "cell-based, Saccharomyces cerevisiae", "details": "liquid low iron SD media, 10 μM FeCl3", "procedure": "(§1) Growth rescue in yeast was performed similar to previously reported (20) using 10 μM hinokitiol in low iron SD liquid media containing 10 μM FeCl3 in a 96-well plate unless otherwise noted. Wild type and fet3Δftr1Δ controls treated with vehicle (DMSO) were performed under identical conditions using the same low iron SD media containing 10 μM FeCl3 in the absence of hinokitiol. Yeast were grown overnight in YPD media and diluted at an OD600 of 0.1 in SD media, diluted 10-fold, and incubated at 30° C. with continuous shaking (200 rpm). The OD600 was obtained 24-48 hours after inoculation unless otherwise noted.\n(§2) Small molecule dose-response (FIG. 1F) with hinokitiol and C2-deoxy hinokitiol (C2deOHino, see synthesis below) was determined by addition of the small molecule (40X stock solution in DMSO) to give the indicated final concentrations."}, "DMT1-deficient MEL cells": {"test_system": "DMT1-deficient MEL cells", "test": "Live cell fluorescence imaging and flow cytometry of compartmentalized iron in MEL cells", "type": "cell-based, mouse", "details": "for endosomal oxyburst green, cytosolic calcein green and mitochondrial RPA fluorescence: 1 μM", "procedure": "To visualize cytosolic and mitochondrial iron, confocal imaging of calcein green and RPA fluorescence was performed, respectively. MEL cells were induced for differentiation as described above. […] The cells were incubated for an additional 2 hours, and then were centrifuged and rinsed with PBS. […] The cells were then incubated at 37° C. for 15 minutes. […] The cells were then imaged within 10 minutes on a LSM710 microscope. Relative calcein green and RPA fluorescence per cell was determined by ImageJ analysis using >100 cells per experiment. […] MEL cells were induced for differentiation as described above. […] The cells were incubated for an additional 2 hours, and then were centrifuged and rinsed with PBS. The cells were then re-suspended in DMEM-HEPES buffer, and H2O2 (50 mM final concentration) was added. The cells were incubated at room temperature, and the oxyburst green fluorescence was then determined 10 minutes after addition of H2O2 on a LSM710 microscope. Relative oxyburst green fluorescence per cell was determined by ImageJ analysis using >100 cells per experiment. […] Median fluorescence was then normalized to shDMT1 for each dye. […] Median fluorescence was then normalized to shDMT1 for each dye."}, "Caco-2": {"test_system": "Caco-2", "test": "WST-8 toxicity in Caco-2 cells", "description": "Determination of small molecule-mediated toxicity in Caco-2, MEL, and/or J774 cells was performed according to manufacturer instructions using a WST-8 kit (Cayman Chemical 10010199) similar to previously reported (76) using a 1000× stock of the indicated small molecule in DMSO to give the indicated final concentration."}, "wild-type yeast (WT)": {"test_system": "wild-type yeast (WT)", "test": "Toxicity to wild type yeast (structure-activity study, FIG. 25)", "procedure": "as §1, §2"}, "[1]": {"test_system": "DMT1-deficient Caco-2 monolayers", "test": "55Fe uptake and transport in DMT1-deficient Caco-2 monolayers", "details": "for iron uptake and transepithelial transport: apical addition (hinokitiol 500 nM), pH 5.5 apical, pH 7.4 basolateral, four hours", "procedure": "Media from differentiated Caco-2 monolayers (P25-50, 21-28 days post seeding) grown on PET inserts in 6-well plates was aspirated, and monolayers were rinsed with PBS. 2 mL of basolateral fluid (serum-free DMEM at pH=7.4 in 10 mM HEPES buffer) was added to the basolateralside, and 1 mL of apical fluid (serum-free DMEM at pH=5.5 in 10 mM MES buffer) containing 200 nM ^55FeCl3 or the indicated concentration of FeCl3 and either DMSO vehicle, hinokitiol, C2deOHino, deferiprone, PIH, SIH, or deferoxamine mesylate (Sigma D9533) (500 nM Hino/C2deOHino for DMT1-deficiency, 1 μM Hino/C2deOHino for FPN1-deficiency, or indicated concentration of small molecule from a 1000X stock in DMSO) was added to the apical side via addition on the wall of the membrane insert without disrupting the cell monolayer. The monolayers were then incubated for four hours at 37° C. unless otherwise noted. A 100 μL aliquot of the basolateral fluid was removed, diluted in scintillation cocktail, and radioactivity was determined on a liquid scintillation counter to quantify relative amounts of ^55Fe transport. To determine intracellular ^55Fe, the basolateral and apical media was removed, and the monolayer was rinsed with PBS (×2). The cells were then lysed with 500 μL of 200 mM NaOH with nutator mixing overnight, and radioactivity was determined on a liquid scintillation counter after diluting the cell lysate in scintillation cocktail. All values were normalized to shControl monolayers unless otherwise noted. Absolute iron levels were determined through calibration of ^55Fe radioactivity levels with known standards and average mg of protein per membrane was determined by protein lysis with RIPA buffer containing protease inhibitors and quantified through a BCA kit according to manufacturer instructions.\nTEER determination in Caco-2 monolayers (FIG. 12D and FIG. 14L) To determine Caco-2 membrane integrity, transport studies were performed as described above, except for the use of non-radioactive iron instead of ^55FeCl3. At the indicated time points, the transepithelial electrical resistance (TEER) was determined with an epithelial voltohmmeter and compared to the TEER of the membrane at the beginning of the experiment."}}, "note": "“Also recorded” adds a separate entry of the source."}
{"smiles": "CC(C)c1cccc(=O)cc1", "note": "[C2deOHino, C2-deoxy hinokitiol]", "values": [{"measurement": "calcein green fluorescence after reversal of the gradient", "setting": "J774 macrophages", "value": "no effect"}, {"measurement": "calcein green fluorescence after small molecule addition", "setting": "J774 macrophages", "value": "no effect"}, {"measurement": "restoration of fet3Δftr1Δ yeast growth, small molecule dose-response", "setting": "fet3Δftr1Δ yeast", "value": "no biological activity; also recorded: does not"}, {"measurement": "endosomal oxyburst green, cytosolic calcein green and mitochondrial RPA fluorescence", "setting": "DMT1-deficient MEL cells", "value": "no effect"}, {"measurement": "EC90", "setting": "Caco-2; read-out: Toxicity (EC90), Wild Type Caco-2, WST-8 assay after ≥24 hours of incubation", "value": "> 100", "unit": "µM"}, {"measurement": "toxicity to wild type yeast", "setting": "wild-type yeast (WT)", "value": "no biological activity"}, {"measurement": "iron uptake and transepithelial transport", "setting": "[1]", "value": "did not promote both uptake and transport"}]}
{"smiles": "CC(C)c1cccc(=O)c(O)c1", "note": "[hinokitiol]", "values": [{"measurement": "calcein green fluorescence after reversal of the gradient", "setting": "J774 macrophages", "value": "quenching of calcein green fluorescence was observed"}, {"measurement": "calcein green fluorescence after small molecule addition", "setting": "J774 macrophages", "value": "rapidly increased calcein green fluorescence"}, {"measurement": "restoration of fet3Δftr1Δ yeast growth, small molecule dose-response", "setting": "fet3Δftr1Δ yeast", "value": "dose-dependently restores yeast growth"}, {"measurement": "restoration of fet3Δftr1Δ yeast growth, small molecule dose-response", "setting": "fet3Δftr1Δ yeast; listed as Hinokitiol", "value": "rescues growth of iron transporter-deficient yeast (Fet3Ftr1) at low concentrations"}, {"measurement": "endosomal oxyburst green, cytosolic calcein green and mitochondrial RPA fluorescence", "setting": "DMT1-deficient MEL cells", "value": "decreases endosomal oxyburst green fluorescence and quenches calcein green and RPA fluorescence"}, {"measurement": "decrease of oxyburst green fluorescence", "setting": "DMT1-deficient MEL cells; hinokitiol 1 μM", "value": 2.1, "unit": "fold"}, {"measurement": "observable toxicity", "setting": "Caco-2; Caco-2 monolayers, hinokitiol 500 nM", "value": "no observable toxicity"}, {"measurement": "toxicity to wild type yeast", "setting": "wild-type yeast (WT)", "value": "kills wild-type yeast (WT) only at high concentrations"}, {"measurement": "monolayer integrity (TEER)", "setting": "[1]; 500 nM", "value": "did not disrupt monolayer integrity"}, {"measurement": "iron uptake and transepithelial transport", "setting": "[1]", "value": "restored uptake and transport"}]}
